# Data from patent US20060234919A1, “Use” (priority 2001, published 2006).
# What was measured:
# [1] = tested on: hydrochloric acid-induced cystitis; assay: urinary frequency in rats with hydrochloric acid-induced cystitis; type: in vivo, rat
# From the text: Twenty Sprague-Dawley rats (body weight 220-250 g) were randomly divided into four equal groups: group 1, normal controls; group 2, a sham treatment (HCl-induced IC, with subsequent saline instillation); group 3, a sham treatment (HCl-induced IC, with subsequent acetic acid instillation); and group 4, stimulated (HCl-induced IC with oxytocin and acetic acid instillation). The IC animal model developed by Rivas et al. was used (Rivas D A, Chancellor M B, Shupp-Byme D, Shenot P J, McHugh K, McCue P. A molecular marker for the development of interstitial cystitis in a rat model: isoactin gene expression. J. Urol. 1997; 157: 1937-1940); IC was induced in groups 2-4 under general anaesthesia (using a combined subcutaneous injection with acepromazine 0.05 mg/kg, ketamine 50 mg/kg and xylazine 5 mg/kg). A sterile polyethylene catheter (outside diameter 1.27 mm; Becton Dickinson Company, Sparks, Md., USA) was inserted into the bladder through the urethra and all urine aspirated. […]
# The micturition pattern was measured both before and 3 weeks after intravesical HCl instillation, using a Grass 79 Polygraph (Grass Instruments Co., Quincy, Mass., USA). Rats were placed into a metabolic cage and micturition recorded automatically for […] (17.00-09.00 hours); all rats were assessed at the same time of the day to minimise the effect of the circadian cycle on micturition frequency and volume. […]
# [2] = tested on: carrageenan induced edema; assay: carrageenan induced edema of the rat hindpaw (plethysmometer); type: in vivo; conditions: for carrageenan induced edema, percentage increase from pre-treatment values in hindpaw volume: 1000 μg/kg s.c., p<0.05
# Procedure: Male Sprague-Dawley rats (260-300 g for s.c. injected and 340-380 g for i.c.v. injected) were used (B&K Universal A B, Sollentuna, Sweden). The animals arrived at least one week before experiments and were housed three-four per cage (except animals provided with i.c.v. cannulas that were housed individually) with free access to food (R36, Ewos, Södertälje, Sweden) and water. The light schedule was a 12/12 h light/dark cycle, and ambient temperature was 20±2° C.
# Oxytocin and the oxytocin antagonist (1-deamino-2-D-Tyr-(OEt)-4-Thr-8-Orn-oxytocin) (Ferring, Malmö, Sweden) were dissolved in physiological saline and injected in a volume of 1 ml/kg s.c. in the dorsal neck. Dexamethasone (Decadron®, Merck, Sharp & Dome, USA) was administered intramuscularly (i.m.). Oxytocin given i.c.v. was dissolved in a volume of 5 μl physiological saline and slowly injected over a period of 1 minute through the i.c.v. guide cannula via a 25 G stain-less-steel injection needle connected to a 10 μl Hamilton syringe via a polyethylene tube. Controls received saline in the same amounts.
# The model of inflammation used, the carrageenan induced edema, is a commonly used model for studies of inflammation and for testing novel anti-inflammatory drugs (Winter C A, Risley E A, Nuss G W. Carrageenan-induced edema in hind paw of the rat as an assay for anti-inflammatory drugs. Proc Soc Exp Biol Med 1962; 111:544-7). To produce acute inflammation, carrageenan, 2 mg in 0.1 ml saline, was injected s.c. into the plantar region of the rat right hindpaw.
# The rats were treated s.c. with oxytocin (1.0, 10, 100 or 1000 μg/kg (n=8 in each group) or saline (n=8+8) immediately before the carrageenan injection. The edema of the right hindpaw was measured (volume in ml) using a plethysmometer (Ugo Basile, type 7150, Florence, Italy) before treatment, half an hour after, one hour after, and then every hour up to 6 or 10 hours after treatment.
# The results are presented as means±SD. Statistical analysis was performed by means of a 1-way ANOVA, followed by Fisher's test for post-hoc comparisons. In the analysis of myeloperoxidase accumulation, a Student's t-test was used. P-values of 0.05 or less were regarded as statistically significant.
# The rats were treated s.c. with oxytocin (1000 μg/kg) and the oxytocin antagonist (1000 μg/kg) (the antagonist was given 30 minutes before oxytocin) (n=8), the oxytocin antagonist alone (1000 μg/kg) (n=8) or saline (n=8) immediately before the carrageenan injection. Measurements as in Example 1.
# The rats were treated i.c.v. with oxytocin (1.0 μg/kg) (n=6) or saline (n=7) immediately before the carrageenan injection. Measurements as in Example 1. The animals were anaesthetised with sodiumpentobarbital (50 mg/kg) (Apoteksbolaget, Sweden) injected intraperitoneally (i.p.). The scull was uncovered, a hole was drilled in the right parietal bone and a guide cannula (21 G) was fixed stereotactically to the scull by means of acrylic dental cement. The coordinates were 1.00 mm posterior and 1.30 mm lateral to the bregma. […] The injection needles (25 G) reached 3.80 mm below the dura mater, with the tip of the needle in the right lateral ventricle. The animals were allowed one week of recovery after the operation. At the end of the experiment, the placement of the guide cannula was checked by injection of 2 μl of toluidine blue.
# The rats were treated i.m. with dexamethasone (10 mg/kg) (n=6) or saline (n=6) immediately before the carrageenan injection. The edema of the right hindpaw was measured using the plethysmometer before treatment, and at 2, 4 and 6 hours after treatment.
substance,measurement,setting,value
Oxytocin,micturition frequency,"[1]; group 4 (HCl-induced IC with oxytocin 1 mg/ml instillation) vs group 2+3, after 3 weeks, P=0.05",significantly less
same,urine volume per micturition,[1]; group 4 (oxytocin instillation) vs group 2+3,not significantly higher
same,effect on carrageenan induced paw edema,"[2]; 1.0 μg/kg i.c.v., p=0.13",did not decrease the paw edema
same,effect on carrageenan induced edema,[2]; 1.0 μg/kg s.c.,No effect
same,effect on carrageenan induced edema,[2]; 10 μg/kg s.c.,No effect
same,effect on carrageenan induced edema,"[2]; 100 μg/kg s.c., 4-10 hours after the injection",reduced the edema significantly
same,"carrageenan induced edema, percentage increase from pre-treatment values in hindpaw volume","[2]; 1 hour after the injection, saline controls 43±11%",21±16%
same,"carrageenan induced edema, percentage increase from pre-treatment values in hindpaw volume","[2]; 2 hours after the injection, saline controls 61±22%",30±17%
same,"carrageenan induced edema, percentage increase from pre-treatment values in hindpaw volume","[2]; 3 hours after the injection, saline controls 79±21%",41 ±16%
same,hindpaw volume compared to controls,"[2]; oxytocin 1000 μg/kg s.c. with oxytocin antagonist 1000 μg/kg s.c. given 30 minutes before, 1-10 hours after carrageenan",significant reduction of the hindpaw volume
same,hindpaw volume compared to controls,"[2]; oxytocin 1000 μg/kg s.c. with oxytocin antagonist 1000 μg/kg s.c., at 24 hours",significant difference was gone
